The structures appear in SMILES notation.

For the experiment, the target named is T1, recombinant human SK (Homo sapiens, UniProt Q9NYA1).
T1 construct: GST (glutathione-S-transferase) (N); made in house; host or cells: bacteria (pGEX bacterial expression vector)
The experiment can be described thus: Recombinant human SK activity assay ([3H]sphingosine to [3H]S1P). It counts as biochemical. To be noted: Human SK incubated with 6 μg/mL of compound; percentage of SK activity inhibited. As for the experimental part:
SK activity is measured by incubation of the recombinant SK with [^3H]sphingosine and 1 mM ATP under defined conditions, followed by extraction of the assay mixture with chloroform:methanol under basic conditions. […] Radioactivity in aliquots of the aqueous phase is then quantified as a measure of [^3H]S1P formation.
Human SK was incubated with 6 μg/mL of the indicated compounds, and then assayed for activity as described above. Values in the column labeled “Recombinant SK (% inhibition)” represent the percentage of SK activity that was inhibited. MDA-MB-231 cells were incubated with 20 μg/mL of the indicated compounds and then assayed for endogenous SK activity as indicated above. Values in the column labeled “Cellular S1P (% inhibition)” represent the percentage of S1P production that was inhibited. Additionally, MDA-MB-231 cells were treated with varying concentration of certain compounds and the amount of S1P produced by the cells was determined. Values in the column labeled “Cellular S1P IC50 (μM)” represent the concentration of compound required to inhibit the production of S1P by 50%. ND=not determined.

T1 sequence (Q9NYA1 whole entry): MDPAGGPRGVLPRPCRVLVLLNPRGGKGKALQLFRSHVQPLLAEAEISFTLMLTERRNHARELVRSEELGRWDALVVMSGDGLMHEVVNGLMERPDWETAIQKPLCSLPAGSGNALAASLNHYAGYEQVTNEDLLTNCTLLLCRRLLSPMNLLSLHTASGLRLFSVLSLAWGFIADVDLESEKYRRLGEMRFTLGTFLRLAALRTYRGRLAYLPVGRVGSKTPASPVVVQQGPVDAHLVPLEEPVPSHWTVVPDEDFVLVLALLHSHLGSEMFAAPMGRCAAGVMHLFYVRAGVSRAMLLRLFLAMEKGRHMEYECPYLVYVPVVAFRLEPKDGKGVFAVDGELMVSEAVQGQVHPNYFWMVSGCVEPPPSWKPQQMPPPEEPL

Turning to `O=C(NCc1ccc(F)c(Cl)c1)C12CC3CC(C1)CC(c1ccc(Cl)cc1)(C3)C2` [A23, 3-(4-Chloro-phenyl)-adamantane-1-carboxylic acid 3-chloro-4-fluoro-benzylamide], the inhibition at 6 µg/mL was 0%. Turning to `O=C(NCc1ccc(F)c(C(F)(F)F)c1)C12CC3CC(C1)CC(c1ccc(Cl)cc1)(C3)C2` [A24, 3-(4-Chloro-phenyl)-adamantane-1-carboxylic acid 4-fluoro-3-trifluoromethyl-benzylamide], the inhibition at 6 µg/mL worked out at 20%. Same read-out and setting: the result for `O=C(NCc1ccc(F)cc1Cl)C12CC3CC(C1)CC(c1ccc(Cl)cc1)(C3)C2` [A25, 3-(4-Chloro-phenyl)-adamantane-1-carboxylic acid 2-chloro-4-fluoro-benzylamide] reads 47%; that for `O=C(NCc1ccc(Cl)c(C(F)(F)F)c1)C12CC3CC(C1)CC(c1ccc(Cl)cc1)(C3)C2` [A26, 3-(4-Chloro-phenyl)-adamantane-1-carboxylic acid 4-chloro-3-trifluoromethyl-benzylamide], 36%. As for `NCc1c(Cl)c(Cl)c(Cl)c(CNC(=O)C23CC4CC(C2)CC(c2ccc(Cl)cc2)(C4)C3)c1Cl` [A27, 3-(4-Chloro-phenyl)-adamantane-1-carboxylic acid 3-aminomethyl-2,4,5,6-tetrachloro-benzylamide], the inhibition at 6 µg/mL was found to be 50%.

For `CC(NC(=O)C12CC3CC(C1)CC(c1ccc(Cl)cc1)(C3)C2)c1ccc(Cl)cc1` (stereo not drawn) [A28, 3-(4-Chloro-phenyl)-adamantane-1-carboxylic acid [1-(4-chloro-phenyl)-ethyl]-amide], the inhibition at 6 µg/mL came out at 6%. Turning to `CS(=O)(=O)c1ccc(CNC(=O)C23CC4CC(C2)CC(c2ccc(Cl)cc2)(C4)C3)cc1` [A30, 3-(4-Chloro-phenyl)-adamantane-1-carboxylic acid 4-methanesulfonyl-benzylamide], the inhibition at 6 µg/mL was found to be 1%. As for `CN(C)c1ccc(CNC(=O)C23CC4CC(C2)CC(c2ccc(Cl)cc2)(C4)C3)cc1` [A31, 3-(4-Chloro-phenyl)-adamantane-1-carboxylic acid 4-dimethylamino-benzylamide], the inhibition at 6 µg/mL was determined as 74%. Same read-out and setting: the result for `O=C(NCc1ccc(OC(F)(F)F)cc1)C12CC3CC(C1)CC(c1ccc(Cl)cc1)(C3)C2` [A32, 3-(4-Chloro-phenyl)-adamantane-1-carboxylic acid 4-trifluoromethoxy-benzylamide] reads 17%; that for `O=C(NCc1cccc(OC(F)(F)F)c1)C12CC3CC(C1)CC(c1ccc(Cl)cc1)(C3)C2` [A33, 3-(4-Chloro-phenyl)-adamantane-1-carboxylic acid 3-trifluoromethoxy-benzylamide], 10%. Regarding `O=C(NCc1ccc(Oc2ccccc2)cc1)C12CC3CC(C1)CC(c1ccc(Cl)cc1)(C3)C2` [A34, 3-(4-Chloro-phenyl)-adamantane-1-carboxylic acid 4-phenoxy-benzylamide], the “Recombinant SK (% inhibition)” value is given as 0%. In the case of `O=C(NCc1ccc(O)c(O)c1)C12CC3CC(C1)CC(c1ccc(Cl)cc1)(C3)C2` [A36, 3-(4-Chloro-phenyl)-adamantane-1-carboxylic acid 3,4-dihydroxy-benzylamide], the inhibition at 6 µg/mL amounted to 37%. In the case of `COc1ccc(CCNC(=O)C23CC4CC(C2)CC(c2ccc(Cl)cc2)(C4)C3)cc1Br` [A42, 3-(4-Chloro-phenyl)-adamantane-1-carboxylic acid [2-(3-bromo-4-methoxy-phenyl)-ethyl]-amide], the inhibition at 6 µg/mL is 5%. Still for that read-out and setting: then `O=C(NCCc1ccc2c(c1)OCO2)C12CC3CC(C1)CC(c1ccc(Cl)cc1)(C3)C2` [A45, 3-(4-Chloro-phenyl)-adamantane-1-carboxylic acid (2-benzo[1,3]dioxol-5-yl-ethyl)-amide], with 64%. Still for that read-out and setting: the result for `O=C(NCCc1cccc(Oc2ccccc2)c1)C12CC3CC(C1)CC(c1ccc(Cl)cc1)(C3)C2` [A46, 3-(4-Chloro-phenyl)-adamantane-1-carboxylic acid [2-(3-phenoxy-phenyl)-ethyl]-amide] reads 4%.

These data come from patent publication US20120122870A1, “Treatment Of Ischemia-Reperfusion Injury” (MUSC FOUNDATION FOR RESEARCH DEVELOPMENT, priority 2009, published 2012).
